Results on 5 compounds are retold here after paper PMC10638401, “Mannich-type modifications of (−)-cannabidiol and (−)-cannabigerol leading to new, bioactive derivatives” (Scientific Reports, 2023).

Values after ≈ are worked out from the molar mass of the structure shown. Like-named read-outs stand apart in the source and are kept apart here.

Data set [1] has as its system SARS-CoV-2. Description: SARS-CoV-2 immunofluorescence assay (nucleoprotein expression) in Vero E6 cells. The format is cell-based. As to conditions: three days. The method, then: (§1) CBD and CBG derivatives were further tested for their ability to inhibit SARS-CoV-2 replication in Vero E6 cells. Initially, the inhibition of virus-induced cytopathic effect was measured by addition of twofold serial dilutions of each derivative to the cells, followed by the infection with SARS-CoV-2 and determination of the cell viability 3 days post-infection by XTT assay. Concurrently, the cytotoxicity of each compound was assessed from identical dilutions in uninfected Vero E6 cells. To confirm anti-SARS-CoV-2 activity in the CPE inhibition assay, selected compounds were tested in immunofluorescence assay, where inhibition of SARS-CoV-2 replication was monitored as reduction in nucleoprotein expression using fluorescence microscope. […] Among the CBG derivatives, we can find quite cytotoxic and non-cytotoxic derivatives as well.
(§2) For CPE-based assay, two-fold fold serial dilutions of compounds from 100 µM were added in triplicate in a 384-well plate with 5000 Vero E6 cells in DMEM medium with 2% FBS, 100 U of penicillin/ml and 100 µg of streptomycin/ml (all Merck). After 1 h incubation SARS-CoV-2 (strain hCoV-19/Czech Republic/NRL_6632_2/2020) was added at multiplicity of infection […]. Following three days incubation at 37 °C in 5% CO2 the cell viability was determined by addition of XTT solution (Sigma-Aldrich) for 4 h and the absorbance was measured using EnVision plate reader (Perkin Elmer). Drug concentrations required to reduce viral cytopathic effect by 50% (EC50) were calculated using nonlinear regression from plots of percentage cell viability versus log10 drug concentration using GraphPad Prism (version 9.0.0, GraphPad Software, LLC). For immunofluorescence assay, two-fold fold serial dilutions of compounds from 100 µM were added in triplicate in 96-well plate with 15,000 Vero E6 cells plated day before in the same medium as above. After 1 h incubation, SARS-CoV-2 was added at multiplicity of infection 0.05 IU/cell. After three days of incubation, cells were fixed with 4% paraformaldehyde, permeabilized with 0.2% Triton X100 (both Merck), washed, incubated with anti-SARS-CoV-2antibody (mouse monoclonal antibody detecting SARS-CoV-2 nucleoprotein) for 2 h at room temperature. Followed by 1.5 h incubation with Cy3-labeled donkey anti-mouse IgG (Jackson ImmunoResearch Europe) and documented using fluorescence microscope with camera (Olympus). Images were processed in ImageJ software (NIH) and compound concentrations required to reduce fluorescence by 50% (EC50s) were calculated from plots of percentage of fluorescent cells versus log10 drug concentration using nonlinear regression analysis as above. Cytotoxicity was evaluated by incubating with the same two-fold serial dilutions of each compound as above with Vero E6 cells in 384-well plate.

Data set [2] has as its system MRSA (Methicillin Resistant Staphylococcus aureus). As to the kind of experiment: MIC, broth micro dilution.
Experimental: (§6) According to CLSI guideline the Minimal Inhibitory Concentrations (MICs) of the prepared compounds were determined with the broth micro dilution method. After an overnight growth on 5% bovine blood agar plates at 35 °C bacterial strains were suspended in physiological saline in order to reach the density of 0.5 McFarland for inoculation. Stock solutions containing different concentrations of the substances were prepared in DMSO and H2O (1:1). These were twofold serially diluted from 256 to 0.5 mg/l in Mueller–Hinton broth, and 100 ml of each dilution was inoculated with 10 ml of each bacterial suspension.
The test system of data set [3] is MSSA (Methicillin Sensitive Staphylococcus aureus). As to the kind of experiment: MIC, broth micro dilution.
Experimental: as §6
The test system of the next data set is Vero E6 cells. As to conditions: uninfected Vero E6 cells, three days, XTT.
The subject of data set [4] is Enterococcus faecalis 15 376 VanA. Description: MIC, broth micro dilution.
Experimental: as §6
A further data set relates to Bacillus subtilis. Description: MIC, broth micro dilution.
The test system of data set [5] is Staphylococcus epidermidis mecA. Description: MIC, broth micro dilution.
Experimental: as §6
The test system of data set [6] is Staphylococcus epidermidis biofilm forming. As to the kind of experiment: MIC, broth micro dilution.
Data set [7] relates to SARS-CoV-2. Description: SARS-CoV-2 cytopathic effect (CPE) inhibition assay in Vero E6 cells (XTT). The format is cell-based. The conditions noted are these: for EC50: Vero E6 cells, 3 days post-infection, XTT. The procedure: as §1, §2
Data set [8] has as its system Enterococcus faecalis 29 212. Description: MIC, broth micro dilution.
Experimental: as §6
Another data set has as its system A2780 cells. As to the kind of experiment: Antiproliferative MTT assay, 72 h. The format is cell-based, human. The conditions noted are these: A2780, 10 and 30 μM. From the text: (§3) Human adherent cancer cell lines A2780, MDA-MB-231 and MCF-7 were obtained from ECACC (European Collection of Cell Cultures, Salisbury, UK; Cat. No.93112519, 92020424, 86012803, respectively). SiHa cell line was obtained from ATCC (American Tissue Culture Collection, Manassas, Virginia, USA; Cat. No. HTB-35). All cell lines used for antiproliferative assay were maintained in Eagle's Minimum Essential Medium (EMEM) completed with 10% fetal bovine serum (FBS), 1% non-essential amino acid solution, and 1% penicillin, streptomycin, and amphotericin B mixture under cell culture conditions described before. All the utilized media and supplements were purchased from Lonza Group Ltd. (Basel, Switzerland).
(§4) The antiproliferative actions of the prepared molecules were determined by the same assay against a panel of adherent human cancer cell lines containing cervical (SiHa), ovarian (A2780) and breast (MCF7, MDA-MB-231) cell lines. Cells were plated onto 96-well microplates (5000 cells/well) and after an overnight incubation treated with two concentrations (10 or 30 μM) of the test substances for 72 h under cell culture conditions. Subsequently, MTT (5 mg/ml in phosphate buffer) was added to the wells, followed by incubation for 4 h. The supernatant was removed, the formazan crystals were then dissolved in 100 µl DMSO. Finally, absorbance values were determined by a microplate reader (BMG Labtech, Ortenberg, Germany) at 545 nm. Two independent measurements were performed with five parallel wells. Results were expressed as percentage of cell proliferation inhibition compared to non-treated control samples regarded as 0%.

The subject of another data set is MCF7 cells. As to the kind of experiment: Antiproliferative MTT assay, 72 h. Format: cell-based, human. The conditions noted are these: MCF7, 10 and 30 μM.
Text: as §3, §4

A further data set has as its system MDA-MB-231 cells. Description: Antiproliferative MTT assay, 72 h. Format: cell-based, human. The conditions noted are these: MDA-MB-231, 10 and 30 μM.
Text: as §3, §4

Another data set relates to SiHa cells. Description: Antiproliferative MTT assay, 72 h. Format: cell-based, human. The conditions noted are these: 10 and 30 μM.
Text: as §3, §4

The test system of data set [9] is Enterococcus faecalis 51299 VanB. As to the kind of experiment: MIC, broth micro dilution.
Experimental: as §6
Data set [10] has as its system SZ95 sebocytes. As to the kind of experiment: Nile Red-assay, arachidonic acid-induced lipogenesis. Format: cell-based, human. The conditions noted are these: 50 μM arachidonic acid, 48 h. The procedure: (§5) Human immortalized SZ95 sebocytes, originated from human facial sebaceous glands[50] were provided by prof. Christos C. Zouboulis, and were cultured in Sebomed® Basal Medium (Cat. No. F8205; Sigma-Aldrich) supplemented with 10% FBS (Gibco-Thermo Fisher Scientific), 1 mM CaCl2 (Cat. No. C7902; Sigma-Aldrich), 5 ng/ml human epidermal growth factor (Cat. No. E9644; Sigma-Aldrich), and MycoZap™ Plus-CL (1:500; Lonza). The medium was changed every other day, and cells were subcultured at 60–70% confluence.
For quantitative measurement of sebaceous (neutral) lipid content, SZ95 sebocytes (20,000 cells/well) were cultured in 96-well “black well/clear bottom” plates (Cat. No. 655090; Greiner Bio-One, Frickenhausen, Germany), and were treated with compounds in the presence or absence of arachidonic acid (AA; Cat. No. 90010; Cayman Chemical Company, Ann Arbor, MI, USA) or its vehicle (absolute ethanol) as indicated. Subsequently, supernatants were discarded, cells were washed twice with phosphate-buffered saline (PBS; 115 mM NaCl, 20 mM Na2HPO4, pH 7.4; all from Sigma-Aldrich), and 100 µl of a 1 µg/ml Nile Red (Cat. No. N3013; Sigma-Aldrich) solution in PBS was added to each well. The plates were then incubated at 37 °C for 30 min, and fluorescence was measured on FlexStation 3 multimode microplate reader (Molecular Devices, San Francisco, CA, USA). Results, measured in relative fluorescence units, are expressed as percentage of the vehicle (absolute ethanol; Cat. No. 20821.296; VWR International)-treated control regarded as 100%, using 485 nm excitation and 565 nm emission wavelengths.

Data set [11] deals with SZ95 sebocytes. Description: Viability MTT-assay on sebocytes, 48 h. The format is cell-based, human. As to conditions: 30 μM. The procedure:
as §5
The viability of HaCaT keratinocytes and SZ95 sebocytes was determined by MTT-assay[58] (Cat. No. M5655; Sigma-Aldrich) measuring the conversion of the tetrazolium salt to formazan by mitochondrial dehydrogenases. Cells were plated in 96-well plates (20,000 cells/well), and were treated as indicated. Cells were then incubated with 0.5 mg/ml MTT reagent for 3 h, and concentration of formazan crystals (as an indicator of number of viable cells) was determined colorimetrically at 565 nm by using FlexStation 3 multi-mode microplate reader (Molecular Devices). Results were expressed as percentage of vehicle-treated control regarded as 100%.

Data set [12] relates to SZ95 sebocytes. As to the kind of experiment: Nile Red-assay, spontaneous sebaceous lipogenesis. As to conditions: applied alone, 48 h. The format is cell-based, human.
The next data set is described as follows: in vitro. As to conditions: African green monkey.
Where [13] appears, read: Enterococcus faecalis 15 376 VanA.
Where [14] appears, read: Staphylococcus epidermidis mecA.
Setting [15] is: Staphylococcus epidermidis biofilm forming.
Setting [16] is: Enterococcus faecalis 51299 VanB.
Where [17] appears, read: Severe acute respiratory syndrome coronavirus 2, Vero C1008, 72 h.

Experimental for Bacillus subtilis: as §6

For `C#CCN1COc2c(c(CCCCC)cc(O)c2[C@@H]2C=C(C)CC[C@H]2C(=C)C)C1` [Compound 11], the concentration for a half-maximal effect (EC50) in the data set with SARS-CoV-2 [1] is 33 ± 1.4 µM; in the data set with SARS-CoV-2 [7], 17 ± 1.5 µM. Besides, the MIC (in data set [2]; in data set [3]; in data set [4] (setting [13]); in the data set on Bacillus subtilis; in [5] (setting [14]); in [6] (setting [15])) was above 256 µg/mL in each case. Further, the MIC in data set [8] (Enterococcus faecalis 29 212) and in [9] (setting [16]) was 128 µg/mL (≈ 325 µM) throughout. The CC50 in the data set on Vero E6 cells amounted to 77 ± 2.6 µM. In addition, the “antiproliferative activity (in words)” value is “None of the other tested CBD analogs (9, 11, and 12) exhibited substantial antiproliferative activity” in the data set with A2780 cells; “None of the other tested CBD analogs (9, 11, and 12) exhibited substantial antiproliferative activity” in the data set on MCF7 cells; “None of the other tested CBD analogs (9, 11, and 12) exhibited substantial antiproliferative activity” in the data set on MDA-MB-231 cells; “None of the other tested CBD analogs (9, 11, and 12) exhibited substantial antiproliferative activity” in the data set with SiHa cells.

Consider `CCCCCc1cc(O)c(C/C=C(\C)CCC=C(C)C)c2c1CN(CCCC)CO2` [Compound 16a], for which the “effect on the lipogenic effect of arachidonic acid (AA)” value in the data set on SZ95 sebocytes [10] was “suppress the effect of AA”. Moreover, the “viability (MTT signal intensity)” value in the data set on SZ95 sebocytes [11] is “tended to suppress viability”. Also, the “spontaneous, homeostatic sebaceous lipogenesis” value in the data set on SZ95 sebocytes [12] is given as “mimicked the previously reported weak lipogenic effect of CBG”.

On to `CCCCCc1c2c(c(C/C=C(\C)CCC=C(C)C)c3c1CN(CCCC)CO3)OCN(CCCC)C2` [Compound 16b], for which the MIC (in [2]; in [3]; in data set [4] (setting [13]); in the data set on Bacillus subtilis; in [5] (setting [14]); in data set [6] (setting [15])) was above 256 µg/mL each time. The MIC in data set [8] (Enterococcus faecalis 29 212) and in data set [9] (setting [16]) was 64 µg/mL (≈ 125 µM) each time. The CC50 in the data set with Vero E6 cells worked out at 7.7 ± 3.2 µM. The same compound yielded an EC50 in the data set with SARS-CoV-2 [7] above 7.7 µM. For the same compound, the “antiproliferative activity (in words)” value in the data set with A2780 cells, in the data set on MCF7 cells, in the data set with MDA-MB-231 cells and in the data set with SiHa cells was “more active than CBG” throughout.

`C#CCN1COc2c(C/C=C(\C)CCC=C(C)C)c(O)cc(CCCCC)c2C1` [Compound 18]: the EC50 was above 28 µM in the data set on SARS-CoV-2 [1] and 15 ± 0.94 µM with SARS-CoV-2 [7]. In addition, the MIC (in data set [2]; in [3]; in [4] (setting [13]); in the data set with Bacillus subtilis; in [5] (setting [14]); in data set [6] (setting [15])) was above 256 µg/mL throughout. The MIC in data set [8] (Enterococcus faecalis 29 212) and in data set [9] (setting [16]) was 64 µg/mL (≈ 162 µM) throughout. The same compound showed a CC50 in the data set with Vero E6 cells of around 28 µM.

Take `CCCCCc1c(CN(CC)CC)c(O)c(C/C=C(\C)CCC=C(C)C)c(O)c1CN(CC)CC` [Compound 21b]: in the data set with SZ95 sebocytes [10], the “effect on the lipogenic effect of arachidonic acid (AA)” value is listed as “suppress the effect of AA”. Also, the EC50 is above 100 µM with SARS-CoV-2 [1] (setting [17]) and 12 ± 0.99 µM in the data set on SARS-CoV-2 [7] (setting [17]). Besides, the MIC was above 256 µg/mL in data set [2] (Staphylococcus aureus); above 256 µg/mL in data set [3] (Staphylococcus aureus); above 256 µg/mL in [4] (Enterococcus faecalis, 15376VANA); above 256 µg/mL with Bacillus subtilis; above 256 µg/mL in data set [5] (Staphylococcus epidermidis); above 256 µg/mL in [6] (Staphylococcus epidermidis). For the same compound, the MIC in [8] (Enterococcus faecalis, 29212) came out at 64 µg/mL (≈ 131 µM); in data set [9] (Enterococcus faecalis, 51299VANB), 64 µg/mL (≈ 131 µM). In “in vitro”, the CC50 is above 100 µM. For the same compound, the “viability (MTT signal intensity)” value with SZ95 sebocytes [11] is “rather increased MTT signal intensity”. Moreover, the “spontaneous, homeostatic sebaceous lipogenesis” value in the data set with SZ95 sebocytes [12] was “mimicked the previously reported weak lipogenic effect of CBG”. The IC50 in the data set with SARS-CoV-2 [7] (Severe acute respiratory syndrome coronavirus 2, Vero C1008, read-out: IC50 (anti-SARS-CoV-2 activity, Figure 8)) is 12 µM.
